In US8604040B2 (priority 2010, dated 2013):
Marks after values point to notes of the source that are not given here.

Assay: log P by HPLC (EEC Directive 79/831 Annex V.A8)
Type: physicochemical
Conditions: for chromatographic logP: HPLC, read-out: logP (pH2.7)
[1] = [b] LC-MS, acidic range, pH 2.7, 0.1% aqueous formic acid and acetonitrile
[2] = pH 2.7, given in the preparation examples
[3] = [a] HPLC, acidic range, pH 2.3, 0.1% aqueous phosphoric acid and acetonitrile
[4] = [c] LC-MS, neutral range, pH 7.8, 0.001 molar aqueous ammonium hydrogencarbonate and acetonitrile

With `O=C(Oc1cccc2ccccc12)c1cccc(C2CCN(C(=O)Cn3nc(C(F)F)cc3C(F)F)CC2)n1` [Example 110] the “log P” value [1] was 3.82^[b].

Compound `CC(C)(C)OC(=O)N1CCN(c2cccc(Br)n2)CC1` [tert-Butyl 4-(6-bromopyridin-2-yl)piperazine-1-carboxylate] has a chromatographic logP [2] of 4.08.

With `O=C(OCc1ccccc1Cl)c1cccc(C2CCN(C(=O)Cn3nc(C(F)F)cc3C(F)F)CC2)n1` [Example 105] the “log P” value [1] was 3.77^[b].

In the case of `O=C(SC1CCCCC1)c1cccc(C2CCN(C(=O)Cn3nc(C(F)F)cc3C(F)F)CC2)n1` [Example 112], the “log P” value [3] is reported as 4.63 and the “log P” value [4] is reported as 4.65.

With `Cc1cc(C(F)(F)F)nn1CC(=O)N1CCC(c2cccc(C(=O)OCc3c(F)cccc3F)n2)CC1` [Example 48] the “log P” value [1] was 3.51^[b].

With `Cc1cc(C(F)(F)F)nn1CC(=O)N1CCC(c2cccc(C(=O)Sc3ccccc3)n2)CC1` [Example 62] the “log P” value [1] was 3.95^[b]; 3.95^[c] and the “log P” value [4] was 3.95^[b]; 3.95^[c].

In the case of `CC(C)(C)OC(=O)N1CCC(O)(c2cccc(Br)n2)CC1` [tert-Butyl 4-(6-bromopyridin-2-yl)-4-hydroxypiperidine-1-carboxylate], the chromatographic logP [2] is reported as 3.05.

For `CCOC(=O)c1cccc(C2CCNCC2)n1` [4-[6-(Ethoxycarbonyl)pyridin-2-yl]piperidinium chloride], the chromatographic logP [2] was 0.55.

In the case of `CCCCCCCNC(=O)c1cccc(C2CCN(C(=O)Cn3nc(C(F)F)cc3C(F)F)CC2)n1` [Example 85], the “log P” value [1] is reported as 3.96 and the “log P” value [4] is reported as 4.05.

With `Cc1cc(C(F)(F)F)nn1CC(=O)N1CCC(c2cccc(C(=O)Sc3cccc4ccccc34)n2)CC1` [Example 60] the “log P” value [1] was 4.41 and the “log P” value [4] was 4.46.

In the case of `CCCCCC(C)NC(=O)c1cccc(C2CCN(C(=O)Cn3nc(C(F)(F)F)cc3C)CC2)n1` (racemic) [Example 17], the “log P” value [1] is reported as 4.17 and the “log P” value [4] is reported as 4.13.

With `CCCCCCCOC(=O)c1cccc(C2CCN(C(=O)Cn3nc(C(F)(F)F)cc3C)CC2)n1` [Example 40] the “log P” value [1] was 4.73^[b].

In the case of `Cc1ccccc1CSC(=O)c1cccc(C2CCN(C(=O)Cn3nc(C(F)(F)F)cc3C)CC2)n1` [Example 56], the “log P” value [1] is reported as 4.57 and the “log P” value [4] is reported as 4.58.

For `Cc1cc(C(F)(F)F)nn1CC(=O)N1CCC(c2cccc(C(=O)NC3CCc4ccccc43)n2)CC1` (racemic) [Example 19], the “log P” value [1] was 3.56^[b]; 3.56^[c] and the “log P” value [4] was 3.56^[b]; 3.56^[c].

With `O=C(OC1CCCc2ccccc21)c1cccc(C2CCN(C(=O)Cn3nc(C(F)F)cc3C(F)F)CC2)n1` (centres unmarked) [Example 100] the “log P” value [1] was 4.07^[b].

With `Cc1cc(C(F)(F)F)nn1CC(=O)N1CCC(c2cccc(C(=O)NCc3ccc(Cl)cc3Cl)n2)CC1` [Example 21] the “log P” value [1] was 4.1 and the “log P” value [4] was 4.

In the case of `CCCCCCCSC(=O)c1cccc(N2CCN(C(=O)Cn3nc(C(F)F)cc3C(F)F)CC2)n1` [Example 130], the “log P” value [3] is reported as 5.4 and the “log P” value [4] is reported as 5.38.

In the case of `Cc1cc(C(F)(F)F)nn1CC(=O)N1CCC(c2cccc(C(=O)NCc3ccc(F)cc3F)n2)CC1` [Example 22], the “log P” value [1] is reported as 3.36^[b]; 3.36^[c] and the “log P” value [4] is reported as 3.36^[b]; 3.36^[c].

For `COCCOC(=O)c1cccc(C2CCN(C(=O)Cn3nc(C(F)(F)F)cc3C)CC2)n1` [Example 41], the “log P” value [1] was 2.46^[b].

For `Cc1ccsc1CNC(=O)c1cccc(C2CCN(C(=O)Cn3nc(C(F)(F)F)cc3C)CC2)n1` [Example 27], the “log P” value [1] was 3.29 and the “log P” value [4] was 3.34.

In the case of `Cc1cc(C(F)(F)F)nn1CC(=O)N1CCN(c2cccc(C(=O)SCc3c(F)cccc3F)n2)CC1` [Example 149], the “log P” value [1] is reported as 4.11 and the “log P” value [4] is reported as 4.29.

For `Cc1cc(C(F)(F)F)nn1CC(=O)N1CCC(c2cccc(C(=O)Sc3ccc4ccccc4c3)n2)CC1` [Example 61], the “log P” value [1] was 4.57 and the “log P” value [4] was 4.61.

With `O=C(OC1CCCCC1)c1cccc(N2CCN(C(=O)Cn3nc(C(F)F)cc3C(F)F)CC2)n1` [Example 119] the “log P” value [3] was 4.61 and the “log P” value [4] was 4.65.

In the case of `O=C(NCc1c(F)cccc1F)c1cccc(C2CCN(C(=O)Cn3nc(C(F)F)cc3C(F)F)CC2)n1` [Example 89], the “log P” value [1] is reported as 3.11 and the “log P” value [4] is reported as 3.14.

With `CCOC(=O)c1cccc(C2=CCN(C(=O)OC(C)(C)C)CC2)n1` [1′-tert-butyl 6-ethyl-3′,6′-dihydro-2,4′-bipyridine-1′,6(2′H)-dicarboxylate] the “logP (pH2.7)” value [2] was 3.48.

In the case of `Cc1cc(C(F)(F)F)nn1CC(=O)N1CCC(c2cccc(C(=O)SCc3ccccc3Cl)n2)CC1` [Example 57], the “log P” value [1] is reported as 4.61^[b]; 4.61^[c] and the “log P” value [4] is reported as 4.61^[b]; 4.61^[c].

In the case of `Cc1cc(C(F)(F)F)nn1CC(=O)N1CCN(c2cccc(C(=O)OCc3c(F)cccc3F)n2)CC1` [Example 74], the “log P” value [1] is reported as 3.54 and the “log P” value [4] is reported as 3.55.

In the case of `Cc1cc(C(F)(F)F)nn1CC(=O)N1CCC(c2cccc(C(=O)Nc3cccc4cccnc34)n2)CC1` [Example 31], the “log P” value [1] is reported as 4.02 and the “log P” value [4] is reported as 4.04.

For `Cc1cc(C(F)(F)F)nn1CC(=O)N1CCC(c2cccc(C(=O)N(C)c3ccccc3Cl)n2)CC1` [Example 10], the “log P” value [1] was 3.18 and the “log P” value [4] was 3.2.

With `Cc1cc(C(F)(F)F)nn1CC(=O)N1CCC(c2cccc(C(=O)OCC(C)(C)C)n2)CC1` [Example 37] the “log P” value [1] was 3.86^[b].

For `O=C(Sc1ccccc1)c1cccc(C2CCN(C(=O)Cn3nc(C(F)F)cc3C(F)F)CC2)n1` [Example 121], the “log P” value [3] was 3.8 and the “log P” value [4] was 3.85.

In the case of `Cc1cc(C(F)(F)F)nn1CC(=O)N1CCC(c2cccc(C(=O)OCC3CCCCC3)n2)CC1` [Example 38], the “log P” value [1] is reported as 4.38^[b].

In the case of `O=C(SCc1ccc(F)cc1)c1cccc(C2CCN(C(=O)Cn3nc(C(F)F)cc3C(F)F)CC2)n1` [Example 128], the “log P” value [3] is reported as 4.1 and the “log P” value [4] is reported as 4.15.

With `CN(Cc1ccc(Cl)cc1Cl)C(=O)c1cccc(C2CCN(C(=O)Cn3nc(C(F)F)cc3C(F)F)CC2)n1` [Example 79] the “log P” value [1] was 3.66 and the “log P” value [4] was 3.73.

With `CN(Cc1ccccc1Cl)C(=O)c1cccc(N2CCN(C(=O)Cn3nc(C(F)F)cc3C(F)F)CC2)n1` [Example 148] the “log P” value [3] was 3.22 and the “log P” value [4] was 3.25.

In the case of `Cc1ccnc(COC(=O)c2cccc(C3CCN(C(=O)Cn4nc(C(F)(F)F)cc4C)CC3)n2)c1` [Example 50], the “log P” value [1] is reported as 3.67^[b].

For `O=C(Oc1ccc2ccccc2c1)c1cccc(C2CCN(C(=O)Cn3nc(C(F)F)cc3C(F)F)CC2)n1` [Example 111], the “log P” value [1] was 3.86^[b].

For `Cc1cccnc1COC(=O)c1cccc(C2CCN(C(=O)Cn3nc(C(F)F)cc3C(F)F)CC2)n1` [Example 108], the “log P” value [1] was 2.14^[b].

In the case of `O=C(Sc1cccs1)c1cccc(N2CCN(C(=O)Cn3nc(C(F)F)cc3C(F)F)CC2)n1` [Example 124], the “log P” value [3] is reported as 3.73 and the “log P” value [4] is reported as 3.75.

For `O=C(OCc1ccc(F)cc1F)c1cccc(C2CCN(C(=O)Cn3nc(C(F)F)cc3C(F)F)CC2)n1` [Example 103], the “log P” value [1] was 3.54^[b].

With `CCCCCCCSC(=O)c1cccc(C2CCN(C(=O)Cn3nc(C(F)F)cc3C(F)F)CC2)n1` [Example 129] the “log P” value [3] was 5.43 and the “log P” value [4] was 5.44.

With `Cc1cc(C(F)(F)F)nn1CC(=O)N1CCC(c2cccc(C(=O)OCC#Cc3ccccc3Cl)n2)CC1` [Example 36] the “log P” value [1] was 4.03^[b].

With `Cc1cc(C(F)(F)F)nn1CC(=O)N1CCC(c2cccc(C(=O)Sc3cccs3)n2)CC1` [Example 63] the “log P” value [1] was 3.85 and the “log P” value [4] was 3.88.

For `O=C(NCc1ccccn1)c1cccc(C2CCN(C(=O)Cn3nc(C(F)F)cc3C(F)F)CC2)n1` [Example 90], the “log P” value [1] was 1.83 and the “log P” value [4] was 2.37.

With `Cc1ccccc1COC(=O)c1cccc(C2CCN(C(=O)Cn3nc(C(F)(F)F)cc3C)CC2)n1` [Example 44] the “log P” value [1] was 3.8^[b].

For `Cc1cc(C(F)(F)F)nn1CC(=O)N1CCC(c2cccc(C(=O)Nc3cccc4ccccc34)n2)CC1` [Example 29], the “log P” value [1] was 3.94.

For `Cc1cc(C(F)(F)F)nn1CC(=O)N1CCC(c2cccc(C(=O)SCc3ccc(Cl)cc3Cl)n2)CC1` [Example 55], the “log P” value [1] was 5.17 and the “log P” value [4] was 5.21.

For `Cc1cc(C(F)(F)F)nn1CC(=O)N1CCC(c2cccc(C(=O)OC3CCCCC3)n2)CC1` [Example 34], the “log P” value [1] was 3.9^[b].

In the case of `CCCCCCCNC(=O)c1cccc(C2CCN(C(=O)Cn3nc(C(F)(F)F)cc3C)CC2)n1` [Example 20], the “log P” value [1] is reported as 4.25 and the “log P” value [4] is reported as 4.24.

In the case of `Cc1csc(COC(=O)c2cccc(C3CCN(C(=O)Cn4nc(C(F)F)cc4C(F)F)CC3)n2)c1` [Example 109], the “log P” value [1] is reported as 3.6^[b].

For `CC(NC(=O)c1cccc(C2CCN(C(=O)Cn3nc(C(F)F)cc3C(F)F)CC2)n1)c1ccccc1Cl` (centres unmarked) [Example 82], the “log P” value [1] was 3.53 and the “log P” value [4] was 3.61.

With `O=C(NCc1ccc(Cl)cc1Cl)c1cccc(N2CCN(C(=O)Cn3nc(C(F)F)cc3C(F)F)CC2)n1` [Example 144] the “log P” value [3] was 3.68 and the “log P” value [4] was 3.7.

With `COC1CCCCC1OC(=O)c1cccc(C2CCN(C(=O)Cn3nc(C(F)F)cc3C(F)F)CC2)n1` (centres unmarked) [Example 97] the “log P” value [1] was 4.17^[b].

With `Cc1cc(C(F)(F)F)nn1CC(=O)N1CCN(c2cccc(C(=O)OCc3ccccc3Cl)n2)CC1` [Example 72] the “log P” value [1] was 3.89 and the “log P” value [4] was 3.9.
